Structures are written as SMILES.

The test system of experiment [1] is mice. Nature of the experiment: glass ball-covering behavior test (obsessive compulsive disorders). Type of experiment: in vivo, Male ICR mice. The protocol: (§1) In the following Examples, all extracts and drugs used were dissolved in physiological saline before use for i.p. administration and the dose was 0.1 ml of physiological saline per 10 g of mouse body weight in either case. All extracts and drugs were suspended in physiological saline containing 1% sodium carboxymethylcellulose before use for oral administration and the dose was 0.1 ml of 1% sodium carboxymethylcellulose-containing physiological saline suspension per 10 g of mouse body weight in either case. Male ICR mice (Japan SLC) having a body weight of 25 to 30 g were used in the tests below unless otherwise stated, and were fed in advance at a room temperature of 23±1° C. and a relative humidity of 55±5% in the environment of a cycle of 12-hour-light from 7 a.m. to 7 p.m. and 12-hour-dark from 7 p.m. to 7 a.m. for 3 to 5 days. The mice were allowed to have water and feed freely.
In evaluating glass ball-covering behavior, wood chip for breeding (beta chip) (Oriental Yeast Co., Ltd.) was placed in the transparent cage described in Example 3 to a depth of 5 cm, on which 20 glass balls (diameter: 1.5 cm) were placed evenly.
Twenty-one mice were grouped into three groups each of seven mice, to which 25 mg/kg of neferine hydrochloride (treatment group 6-1), 50 mg/kg of the same (treatment group 6-2), and physiological saline (negative control group) were administered intraperitoneally, respectively. A mouse was placed in the cage 15 minutes after administration, and the number of the glass balls not covered with the wood chip was counted by visual observation at an interval of 10 minutes. The number of balls having ⅔ or more of the surface thereof being embedded in the wood chip when the cage was observed from above was counted as the criteria for judgment.

Experiment [2] deals with mice. Nature of the experiment: formalin pad test. Type of experiment: in vivo, Male ICR mice. As to conditions: for Licking sustaining time (second) First phase: 0 to 5 minutes; for Licking sustaining time (second) Second phase: 15 to 30 minutes. The protocol:
as §1
A formalin pad test is a method in which, when formalin is subcutaneously administered to a pad of a mouse, the mouse causes licking, and analgesic action of a test drug is determined by utilizing this. Suppression of licking in a test drug-administered group was investigated relative to a physiological saline-administered control group, and analgestic action was evaluated.
Six mice per group were used. Neferine hydrochloride was intraperitoneally administered at a dose of 25 mg/kg, 50 mg/kg or 100 mg/kg and, after fifteen minutes, 20 μl of a 0.2% by weight formalin aqueous solution was subcutaneously administered to a right hind paw pad. After formalin administration, licking was regarded as a provisional pain reaction, and a licking sustaining time in a first phase from immediately after formalin administration to five minutes after formalin administration and in a second phase from 15 minutes to 30 minutes after formalin administration was measured. Regarding the resulting measurements, a significant difference test was performed by a Dunnet multiple comparison test method.
According to the same manner as in Example 13 except that 10 mg/kg of O-methylarmepavine was intraperitoneally administered in place of neferine, a formalin pad test was performed.

The mark [3] stands for this setting: 25 mg/kg i.p. 15 minutes before formalin.
Setting [4] is: 50 mg/kg i.p. 15 minutes before formalin.
[5] abbreviates: 100 mg/kg i.p. 15 minutes before formalin.

In the case of `COc1ccc(C[C@@H]2c3cc(Oc4cc(C[C@@H]5c6cc(OC)c(OC)cc6CCN5C)ccc4O)c(OC)cc3CCN2C)cc1` [neferine], the “Number of glass balls covered with wood chip After 20 minutes” value in the experiment on mice [1] (25 mg/kg i.p.) is 7; in the experiment on mice [1] (50 mg/kg i.p.), 6. Further, the “Number of glass balls covered with wood chip After 30 minutes” value is reported as 10 in the experiment on mice [1] (25 mg/kg i.p.) and 9 in the experiment on mice [1] (50 mg/kg i.p.). In addition, the “Number of glass balls covered with wood chip After 10 minutes” value in the experiment with mice [1] (25 mg/kg i.p., placed in cage 15 minutes after administration) amounted to 4; with mice [1] (50 mg/kg i.p.) it was 3. For the same molecule, the “Licking sustaining time (second) First phase” value in the experiment with mice [2] (setting [3]) was 95.2 ± 3.79 s; with mice [2] (setting [4]) it was 98.7 ± 8.57 s; in the experiment with mice [2] (setting [5]), 78.3 ± 7.57 s. The results for the “Licking sustaining time (second) Second phase” value with mice [2] (setting [3]), with mice [2] (setting [4]) and in the experiment with mice [2] (setting [5]) were 235.7 ± 13.01 s, 200.3 ± 24.43 s and 139.7 ± 18.61 s, respectively.
